Test results as given in patent US6677466B1, “Method for stabilizing hydrogen peroxide” (DSM Fine Chemicals Austria NFG GmbH & Co KG, priority 1999, dated 2004).

Experiment: O2 evolution from RuO2.xH2O-catalysed decomposition of H2O2 with stabilizer
Assay type: physicochemical
Description: A 50% strength aqueous solution of H2O2 (304 mg; 4.46 mmol) was added to 454 mg (4.46 mmol) of methyl pyruvate and to 535 mg (4.46 mmol) of glyoxylic methyl ester methyl hemiacetal, respectively. In the case of methyl pyruvate, a marked evolution of heat was discovered during the addition. After one hour, the H2O2/α-keto ester mixture was mixed with 1 ml of solvent and added to a suspension of 2.5 mg of RuO2.xH2O catalyst (Aldrich) in 4 ml of solvent. The suspension was introduced into a 50 ml flask which was maintained at room temperature in a water bath.
As a comparison, a suspension of 2.5 mg of RuO2.xH2O catalyst (Aldrich) in 4 ml of solvent was combined with a 50% strength aqueous solution of H2O2 (304 mg; 4.46 mmol) and 1 ml of solvent without stabilizer.
The amount of oxygen which […] the decomposition of the hydrogen peroxide was determined as a function of time using a Brooks meter, which permitted measurement of the gas flow and of the total amount of evolved gas.
The amount of oxygen is defined here as % of the maximum amount to be calculated on the basis of stoichiometry.

In the case of `COC(=O)C(C)=O` [methyl pyruvate], the “O2 evolution V(O2) (Vmax(O2)*100%)” value (solv. acetic acid, t 1 min) is reported as 0%, the “O2 evolution V(O2) (Vmax(O2)*100%)” value (solv. acetic acid, t 2 min) is reported as 0% and the “O2 evolution V(O2) (Vmax(O2)*100%)” value (solv. acetic acid, t 5 min) is reported as 2%. The “O2 evolution V(O2) (Vmax(O2)*100%)” value (solv. acetic acid, t 10 min) was 4%, the “O2 evolution V(O2) (Vmax(O2)*100%)” value (solv. acetic acid, t 15 min) was 4% and the “O2 evolution V(O2) (Vmax(O2)*100%)” value (solv. acetic acid, t 20 min) was 4%. The “O2 evolution V(O2) (Vmax(O2)*100%)” value (solv. acetic acid, t 25 min) was 4%, the “O2 evolution V(O2) (Vmax(O2)*100%)” value (solv. acetic acid, t 30 min) was 4% and the “O2 evolution V(O2) (Vmax(O2)*100%)” value (solv. acetic acid, t 35 min) was 4%. The “O2 evolution V(O2) (Vmax(O2)*100%)” value (solv. acetic acid, t 40 min) was 4%, the “O2 evolution V(O2) (Vmax(O2)*100%)” value (solv. acetone, t 1 min) was 10% and the “O2 evolution V(O2) (Vmax(O2)*100%)” value (solv. acetone, t 2 min) was 20%. The “O2 evolution V(O2) (Vmax(O2)*100%)” value (solv. acetone, t 5 min) was 29%, the “O2 evolution V(O2) (Vmax(O2)*100%)” value (solv. acetone, t 10 min) was 29% and the “O2 evolution V(O2) (Vmax(O2)*100%)” value (solv. acetone, t 15 min) was 29%. For the same molecule, the “O2 evolution V(O2) (Vmax(O2)*100%)” value (solv. acetone, t 20 min) was 29%, the “O2 evolution V(O2) (Vmax(O2)*100%)” value (solv. acetone, t 25 min) was 29% and the “O2 evolution V(O2) (Vmax(O2)*100%)” value (solv. acetone, t 30 min) was 29%. The “O2 evolution V(O2) (Vmax(O2)*100%)” value (solv. acetone, t 35 min) was 29%, the “O2 evolution V(O2) (Vmax(O2)*100%)” value (solv. acetone, t 40 min) was 29% and the “O2 evolution V(O2) (Vmax(O2)*100%)” value (solv. acetonitrile, t 1 min) was 9%. For the same molecule, the “O2 evolution V(O2) (Vmax(O2)*100%)” value (solv. acetonitrile, t 2 min) was 18%, the “O2 evolution V(O2) (Vmax(O2)*100%)” value (solv. acetonitrile, t 5 min) was 30% and the “O2 evolution V(O2) (Vmax(O2)*100%)” value (solv. acetonitrile, t 10 min) was 40%. The “O2 evolution V(O2) (Vmax(O2)*100%)” value (solv. acetonitrile, t 15 min) was 47%, the “O2 evolution V(O2) (Vmax(O2)*100%)” value (solv. acetonitrile, t 20 min) was 51% and the “O2 evolution V(O2) (Vmax(O2)*100%)” value (solv. acetonitrile, t 25 min) was 53%. For the same molecule, the “O2 evolution V(O2) (Vmax(O2)*100%)” value (solv. acetonitrile, t 30 min) was 53%, the “O2 evolution V(O2) (Vmax(O2)*100%)” value (solv. acetonitrile, t 35 min) was 53% and the “O2 evolution V(O2) (Vmax(O2)*100%)” value (solv. acetonitrile, t 40 min) was 53%. For the same molecule, the “O2 evolution V(O2) (Vmax(O2)*100%)” value (solv. ethyl acetate, t 1 min) was 8%, the “O2 evolution V(O2) (Vmax(O2)*100%)” value (solv. ethyl acetate, t 2 min) was 12% and the “O2 evolution V(O2) (Vmax(O2)*100%)” value (solv. ethyl acetate, t 5 min) was 20%. For the same molecule, the “O2 evolution V(O2) (Vmax(O2)*100%)” value (solv. ethyl acetate, t 10 min) was 29%, the “O2 evolution V(O2) (Vmax(O2)*100%)” value (solv. ethyl acetate, t 15 min) was 32% and the “O2 evolution V(O2) (Vmax(O2)*100%)” value (solv. ethyl acetate, t 20 min) was 37%. The “O2 evolution V(O2) (Vmax(O2)*100%)” value (solv. ethyl acetate, t 25 min) was 40%, the “O2 evolution V(O2) (Vmax(O2)*100%)” value (solv. ethyl acetate, t 30 min) was 42% and the “O2 evolution V(O2) (Vmax(O2)*100%)” value (solv. ethyl acetate, t 35 min) was 47%. The “O2 evolution V(O2) (Vmax(O2)*100%)” value (solv. ethyl acetate, t 40 min) was 50%, the “O2 evolution V(O2) (Vmax(O2)*100%)” value (solv. methanol, t 1 min) was 10% and the “O2 evolution V(O2) (Vmax(O2)*100%)” value (solv. methanol, t 2 min) was 19%. For the same molecule, the “O2 evolution V(O2) (Vmax(O2)*100%)” value (solv. methanol, t 5 min) was 32%, the “O2 evolution V(O2) (Vmax(O2)*100%)” value (solv. methanol, t 10 min) was 43% and the “O2 evolution V(O2) (Vmax(O2)*100%)” value (solv. methanol, t 15 min) was 49%. The “O2 evolution V(O2) (Vmax(O2)*100%)” value (solv. methanol, t 20 min) was 52%, the “O2 evolution V(O2) (Vmax(O2)*100%)” value (solv. methanol, t 25 min) was 53% and the “O2 evolution V(O2) (Vmax(O2)*100%)” value (solv. methanol, t 30 min) was 53%. The “O2 evolution V(O2) (Vmax(O2)*100%)” value (solv. methanol, t 35 min) was 53%, the “O2 evolution V(O2) (Vmax(O2)*100%)” value (solv. methanol, t 40 min) was 53% and the “O2 evolution V(O2) (Vmax(O2)*100%)” value (solv. t-butanol, t 1 min) was 2%. For the same molecule, the “O2 evolution V(O2) (Vmax(O2)*100%)” value (solv. t-butanol, t 2 min) was 5%, the “O2 evolution V(O2) (Vmax(O2)*100%)” value (solv. t-butanol, t 5 min) was 10% and the “O2 evolution V(O2) (Vmax(O2)*100%)” value (solv. t-butanol, t 10 min) was 18%. For the same molecule, the “O2 evolution V(O2) (Vmax(O2)*100%)” value (solv. t-butanol, t 15 min) was 21%, the “O2 evolution V(O2) (Vmax(O2)*100%)” value (solv. t-butanol, t 20 min) was 23% and the “O2 evolution V(O2) (Vmax(O2)*100%)” value (solv. t-butanol, t 25 min) was 25%. The “O2 evolution V(O2) (Vmax(O2)*100%)” value (solv. t-butanol, t 30 min) was 25%, the “O2 evolution V(O2) (Vmax(O2)*100%)” value (solv. t-butanol, t 35 min) was 25% and the “O2 evolution V(O2) (Vmax(O2)*100%)” value (solv. t-butanol, t 40 min) was 25%. For the same molecule, the “O2 evolution V(O2) (Vmax(O2)*100%)” value (solv. water, t 1 min) was 9%, the “O2 evolution V(O2) (Vmax(O2)*100%)” value (solv. water, t 2 min) was 17% and the “O2 evolution V(O2) (Vmax(O2)*100%)” value (solv. water, t 5 min) was 30%. The “O2 evolution V(O2) (Vmax(O2)*100%)” value (solv. water, t 10 min) was 40%, the “O2 evolution V(O2) (Vmax(O2)*100%)” value (solv. water, t 15 min) was 48% and the “O2 evolution V(O2) (Vmax(O2)*100%)” value (solv. water, t 20 min) was 51%. The “O2 evolution V(O2) (Vmax(O2)*100%)” value (solv. water, t 25 min) was 55%, the “O2 evolution V(O2) (Vmax(O2)*100%)” value (solv. water, t 30 min) was 55% and the “O2 evolution V(O2) (Vmax(O2)*100%)” value (solv. water, t 35 min) was 55%. For the same molecule, the “O2 evolution V(O2) (Vmax(O2)*100%)” value (solv. water, t 40 min) was 55%.
